From patent US11459313B2, “Aziridinyl and amino dimeric naphthoquinone compounds and use for acute myeloid leukemia” (University of Maryland, Baltimore, priority 2016, dated 2022)
Read-outs that look alike come from different tables or passages of the source. One block for each compound: values may come before it.

Tests used:
MV4-11 cells = test: WST-1 cell proliferation assay, MV4-11; format: cell-based, human
Procedure: (§1) Cell lines were seeded into 96-well plates the afternoon prior to treatment. Approximately 18 hours later, bis and mono-aziridine dimeric naphthoquinone compounds were semi-serially diluted in dimethyl sulfoxide (DMSO) and then growth medium, and added to cells. Plates were incubated for 72 hours prior to addition of WST-1 (Promega®). Plates were read after 4 additional hours of incubation at 37° C. using a Bio-Tek Synergy® HT plate reader (Bio-Tek®). Data were analyzed and graphed using GraphPad Prism® Software (Graph Pad®).
(§2) Primary AML cells from patients and cell lines were seeded into 96-well plates the afternoon prior to treatment. Eighteen hours later, amino-dimeric naphthoquinone Compounds 106, 101, and 114 were semi-serially diluted in dimethyl sulfoxide (DMSO) and then growth medium, and added to the cells. In order to quantitate proliferation of metabolically active cells, plates were incubated for 72 hours for cell lines and 48 hours for primary AML cells prior to addition of water-soluble tetrazolium (WST-1) (Clontech®). Plates were read after four additional hours of incubation at 37° C. using a Bio-Tek Synergy® HT plate reader (Bio-Tele®). Data were analyzed and graphed using GraphPad Prism® Software (GraphPad®). IC50 was defined as the concentration that decreases viable cell numbers by 50%. IC50 values were calculated as mean±standard deviation from at least two independent experiments. If availability of primary blasts was limited, the IC50 was obtained from a single experiment.

MOLM-14 cells = test: WST-1 cell proliferation assay, MOLM-14; format: cell-based, human; conditions: cell proliferation
Procedure: as §1, §2
To investigate antiproliferative activity of amino-dimeric naphthoquinones against AML cells, an MTT-like cell proliferation assay was performed in the AML cell lines using WST-1 (water soluble tetrazolium salts; Promega®). MOLM-14 and AML-D cells, as well as normal hematopoietic bone marrow cells from a healthy donor, were exposed to a range of concentrations of Compound 101. Human leukemia cells were cultured in the presence of the compound for 72 hours (48 hours for primary cells) and WST-1 reagent was then added. The cells then were monitored for cell growth or the number of cells proliferating and the IC50 calculated. The IC50 is the concentration at which 50% of the cells are not proliferating compared to control cells treated with vehicle. See FIG. 2A, FIG. 2B, and FIG. 2C for representative graphs of these IC50 determinations.

[1] = Homo sapiens, MV4-11, Table 1, cell proliferation, read-out: MV411 IC50
[2] = Homo sapiens, MV4-11, Table 7, cell proliferation, read-out: IC50 (μM) MV411
[3] = Homo sapiens, MOLM-14, Table 1, read-out: MOLM14 IC50
[4] = Homo sapiens, MOLM-14, Table 7, read-out: IC50 (μM) MOLM-14
[5] = Table 2, cell proliferation, read-out: MV411 IC50
[6] = Homo sapiens, MV4-11, Table 9, cell proliferation, read-out: IC50 (μM) MV411
[7] = Homo sapiens, MOLM-14, Table 9, read-out: IC50 (μM) MOLM-14
[8] = Homo sapiens, MV4-11, Table 3, cell proliferation, read-out: MV411 IC50
[9] = Homo sapiens, MOLM-14, Table 3, read-out: MOLM14 IC50

Compound: CN(C)C1=C(C2=C(N(C)C)C(=O)c3ccccc3C2=O)C(=O)c2ccccc2C1=O [Compound 135]
- IC50 (MV4-11 cells; [6]): 2.2 ± 0.6 µM
- IC50 (MOLM-14 cells; [7]): 2.8 ± 0.9 µM

Compound: CN(C)C1=C(C2=C(N(C)C)C(=O)c3ccccc3C2=O)C(=O)c2ccccc2C1=O [Compound 114, 3,3′-bis(dimethylamino)-[2,2′-binaphthalene]-1,1′,4,4′-tetrone]
- IC50 (MV4-11 cells; Homo sapiens, MV4-11, Example 5 text, unit inferred, read-out: IC50 against MV4-11): 2.4 ± 0.3 µM

Compound: O=C1C(NCCO)=C(C2=C(NCCO)C(=O)c3ccccc3C2=O)C(=O)c2ccccc21 [Compound 115]
- IC50 (MV4-11 cells; [6]): 0.2 ± 0.02 µM
- IC50 (MOLM-14 cells; [7]): 0.15 ± 0.01 µM

Compound: 3-chloro-3′-hydroxy dimeric naphthoquinone [Compound 144, reference compound]
- IC50 (MV4-11 cells; Table 1, cell proliferation, read-out: MV411 IC50): 3 ± 0.07 µM
- IC50 (MV4-11 cells; Table 7, cell proliferation, read-out: IC50 (μM) MV411): 3 µM
- IC50 (MOLM-14 cells; Table 1, read-out: MOLM14 IC50): 6.5 ± 0.28 µM
- IC50 (MOLM-14 cells; Table 7, read-out: IC50 (μM) MOLM-14): 6.3 µM

Compound: CN(CCO)C1=C(C2=C(N(C)CCO)C(=O)c3ccccc3C2=O)C(=O)c2ccccc2C1=O [Compound 118]
- IC50 (MV4-11 cells; [6]): 5.25 ± 0.3 µM
- IC50 (MOLM-14 cells; [7]): 5.8 ± 0.6 µM

Compound: CC(=O)OCCNC1=C(C2=C(NCCOC(C)=O)C(=O)c3ccccc3C2=O)C(=O)c2ccccc2C1=O [Compound 109, 3,3′bis-[(2-acyloxyethyl)amino]-2,2′-binaphthalenyl-1, -1′,4,4′-tetrone]
- IC50 (MV4-11 cells; [8]): 2.2 ± 0.74 µM
- IC50 (MOLM-14 cells; [9]): 1 µM

Compound: CC(=O)OCCNC1=C(C2=C(NCCOC(C)=O)C(=O)c3ccccc3C2=O)C(=O)c2ccccc2C1=O [Compound 119]
- IC50 (MV4-11 cells; [6]): 2.2 ± 0.7 µM
- IC50 (MOLM-14 cells; [7]): 1 µM

Compound: CC(O)CNC1=C(C2=C(NCC(C)O)C(=O)c3ccccc3C2=O)C(=O)c2ccccc2C1=O (centres unmarked) [Compound 112]
- IC50 (MV4-11 cells; [8]): 3.94 ± 2.23 µM
- IC50 (MOLM-14 cells; [9]): 1.49 ± 0.46 µM

Results, then the compound that gave them:

- IC50 (MV4-11 cells; [1]): 0.76 ± 0.36 µM
- IC50 (MV4-11 cells; [2]): 0.5 µM
- IC50 (MOLM-14 cells; [3]): 0.85 ± 0.25 µM
- IC50 (MOLM-14 cells; [4]): 0.6 µM
Compound: O=C1C(Cl)=C(C2=C(N3CCN(CCO)CC3)C(=O)c3ccccc3C2=O)C(=O)c2ccccc21 [Compound 126, 3-chloro-3′-[(4-hydroxyethyl)piperazinyl]-2,2′-binaphthalenyl-1,1′,4,4′-tetrone]

- IC50 (MV4-11 cells; [5]): 1.65 µM
- IC50 (MOLM-14 cells; Table 2, read-out: MOLM14 IC50): 1.17 µM
Compound: O=C1C(C2=C(N3CCN(CCO)CC3)C(=O)c3ccccc3C2=O)=C(N2CCN(CCO)CC2)C(=O)c2ccccc21 [Compound 121, 3,3′-bis[4-(2-hydroxyethyl)piperazin-1-yl]-4a,5a-dihydro-[2,2′-binaphthalene]-1,1′,4,4′-tetrone]

- IC50 (MV4-11 cells; [6]): 2.5 µM
- IC50 (MOLM-14 cells; [7]): 4.3 ± 2.1 µM
Compound: O=C1C(C2=C(N3CCC(O)CC3)C(=O)c3ccccc3C2=O)=C(N2CCC(O)CC2)C(=O)c2ccccc21 [Compound 117]

- IC50 (MV4-11 cells; [1]): 1.3 ± 1 µM
- IC50 (MV4-11 cells; [2]): 1.3 µM
- IC50 (MOLM-14 cells; [3]): 2.8 ± 0.01 µM
- IC50 (MOLM-14 cells; [4]): 2.8 µM
Compound: CN(C)CCN(C)C1=C(C2=C(Cl)C(=O)c3ccccc3C2=O)C(=O)c2ccccc2C1=O [Compound 124, 3-chloro-3′((2-(dimethylamino)ethyl)(methyl)amino)-[2,2′-binaphthalene]-1,1′,4,4′-tetrone]

- IC50 (MV4-11 cells; [1]): 2.4 ± 2 µM
- IC50 (MV4-11 cells; [2]): 2.4 µM
- IC50 (MOLM-14 cells; [3]): 3 ± 1.42 µM
- IC50 (MOLM-14 cells; [4]): 3 µM
Compound: CN(C)C1=C(C2=C(Cl)C(=O)c3ccccc3C2=O)C(=O)c2ccccc2C1=O [Compound 123, 3-chloro-3′-(dimethylamino)-2,2′-binaphthalenyl-1,1′,4,4′-tetrone]

- IC50 (MV4-11 cells; [5]): 2.5 µM
- IC50 (MOLM-14 cells; Table 2, read-out: MOLM14 IC50): 4.3 ± 2.12 µM
Compound: O=C1C(C2=C(N3CCC(O)CC3)C(=O)c3ccccc3C2=O)=C(N2CCC(O)CC2)C(=O)c2ccccc21 [Compound 122, 3,3′-bis-(4-hydroxypiperidinyl)-2,2′-binaphthalenyl-1,1′,4,4′-tetrone]
